target: soluble guanylate cyclase (human GUCYA3 and GUCYB3) overexpressed in CHO cells (Homo sapiens (Human), UniProt Q02108+Q02153); assay: CHO cellular assay (cGMP production, Cisbio cGMP HTRF kit); assay type: cell-based; conditions: CHO GUCY clone 8E10, cGMP production, assay buffer with 1 mM IBMX and 20 uM ODQ, 1 h room temperature; minimum quantification limit 0.5 nM (listed 0.5 nM means ≤0.5 nM); read-out: EC50
How it was run: (§1)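 Stable CHO-K1 clone 8E10 expressing human sGC (GUCYA3/GUCYB3), 3000 cells/well, exposed 1 h at room temperature to activators in HBSS, 0.1% BSA, 1 mM IBMX, 20 uM ODQ, 0.5% DMSO final. cGMP was measured by HTRF and interpolated from a standard curve. EC50 came from a 4-parameter sigmoidal fit.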

Sequence of soluble guanylate cyclase (human GUCYA3 and GUCYB3) overexpressed in CHO cells (Homo sapiens (Human), UniProt Q02108+Q02153) (Q02108 whole entry partner): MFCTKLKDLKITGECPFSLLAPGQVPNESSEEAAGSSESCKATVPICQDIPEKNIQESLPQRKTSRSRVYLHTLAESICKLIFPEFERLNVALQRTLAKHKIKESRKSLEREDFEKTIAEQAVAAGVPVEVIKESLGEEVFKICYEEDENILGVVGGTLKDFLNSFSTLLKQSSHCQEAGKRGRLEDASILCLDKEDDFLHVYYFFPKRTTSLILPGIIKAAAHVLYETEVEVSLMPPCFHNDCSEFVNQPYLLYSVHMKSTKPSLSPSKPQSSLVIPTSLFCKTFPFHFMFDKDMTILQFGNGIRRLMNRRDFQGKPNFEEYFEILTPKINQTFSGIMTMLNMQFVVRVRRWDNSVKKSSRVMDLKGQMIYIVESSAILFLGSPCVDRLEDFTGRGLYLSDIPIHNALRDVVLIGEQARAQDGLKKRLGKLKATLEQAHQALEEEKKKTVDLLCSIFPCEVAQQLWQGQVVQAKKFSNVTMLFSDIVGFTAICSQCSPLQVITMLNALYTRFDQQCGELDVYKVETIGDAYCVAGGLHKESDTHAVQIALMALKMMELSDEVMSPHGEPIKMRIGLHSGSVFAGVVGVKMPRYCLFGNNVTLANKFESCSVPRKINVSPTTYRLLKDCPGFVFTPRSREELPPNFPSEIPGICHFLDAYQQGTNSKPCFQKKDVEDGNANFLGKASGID
Sequence of soluble guanylate cyclase (human GUCYA3 and GUCYB3) overexpressed in CHO cells (Homo sapiens (Human), UniProt Q02108+Q02153) (Q02153 whole entry): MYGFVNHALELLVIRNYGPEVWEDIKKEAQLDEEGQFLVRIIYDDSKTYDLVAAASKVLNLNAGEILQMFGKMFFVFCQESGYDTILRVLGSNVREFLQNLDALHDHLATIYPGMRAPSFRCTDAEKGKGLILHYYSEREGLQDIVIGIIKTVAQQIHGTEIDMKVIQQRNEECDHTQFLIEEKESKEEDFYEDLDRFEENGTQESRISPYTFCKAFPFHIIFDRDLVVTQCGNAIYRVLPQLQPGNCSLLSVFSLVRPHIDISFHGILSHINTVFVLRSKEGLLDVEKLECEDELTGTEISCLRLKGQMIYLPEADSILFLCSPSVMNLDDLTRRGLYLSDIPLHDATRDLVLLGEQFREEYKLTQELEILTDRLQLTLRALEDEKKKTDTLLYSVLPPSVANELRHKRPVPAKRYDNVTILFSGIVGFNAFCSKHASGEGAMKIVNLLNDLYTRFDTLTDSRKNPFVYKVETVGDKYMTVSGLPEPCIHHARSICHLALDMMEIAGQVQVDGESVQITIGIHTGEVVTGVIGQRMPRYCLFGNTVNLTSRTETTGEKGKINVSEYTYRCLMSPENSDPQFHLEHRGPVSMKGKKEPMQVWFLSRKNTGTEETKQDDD

Structure (SMILES)	EC50
CCOC(=O)N1CCC(c2ccc(NC3CCc4cccc(-c5cccc(-n6ncc(C(=O)O)c6C)n5)c43)c(C)c2)CC1 (stereo not drawn) [Example 52-4]	≤ 0.5 nM
COCCOC(=O)N1CCC(c2ccc(NC3CCc4cccc(-c5cccc(-n6ncc(C(=O)O)c6C)n5)c43)c(C)c2)CC1 (stereo not drawn) [Example 52-5]	1 nM
C=C(C)OC(=O)N1CCC(c2ccc(NC3CCc4cccc(-c5cccc(-n6ncc(C(=O)O)c6C)n5)c43)c(C)c2)CC1 (stereo not drawn) [Example 52-6, 5-Methyl-1-(6-(3-((2-methyl-4-(1-((prop-1-en-2-yloxy)carbonyl)piperidin-4-yl)phenyl)amino)-2,3-dihydro-1H-inden-4-yl)pyridin-2-yl)-1H-pyrazole-4-carboxylic acid]	1.4 nM

Results, then the molecule that gave them:

EC50	Structure (SMILES)
2 nM	CCc1cc(O[C@H]2CCc3cccc(-c4cccc(-n5ncc(C(=O)O)c5CC)n4)c32)ccc1C1CCN(C(=O)OCc2ccccc2)CC1 [Example 64-1, (S)-1-(6-(3-(4-(1-((Benzyloxy)carbonyl)pipendin-4-yl)-3-ethylphenoxy)-2,3-dihydro-1H-inden-4-yl)pyridin-2-yl)-5-ethyl-1H-pyrazole-4-carboxylic acid]
1.4 nM	CCc1cc(O[C@H]2CCc3cccc(-c4cccc(-n5ncc(C(=O)O)c5CC)n4)c32)ccc1C1CCN(C(=O)OCC2CC2)CC1 [Example 64-6, (S)-1-(6-(3-(4-(1-((Cyclopropylmethoxy)carbonyl)piperidin-4-yl)-3-ethylphenoxy)-2,3-dihydro-1H-inden-4-yl)pyridin-2-yl)-5-ethyl-1H-pyrazole-4-carboxylic acid]
≤ 0.5 nM	CCc1cc(O[C@H]2CCc3cccc(-c4cccc(-n5ncc(C(=O)O)c5CC)n4)c32)ccc1C1CCN(S(C)(=O)=O)CC1 [Example 64-8, (S)-5-Ethyl-1-(6-(3-(3-ethyl-4-(1-(methylsulfonyl)piperidin-4-yl)phenoxy)-2,3-dihydro-1H-inden-4-yl)pyridin-2-yl)-1H-pyrazole-4-carboxylic acid]

same assay, conditions: EC50 (nM)

EC50	Structure (SMILES)
1 nM	CCc1cc(O[C@H]2CCc3cccc(-c4cccc(-n5ncc(C(=O)O)c5CC)n4)c32)ccc1C1CCN(C(=O)OC(C)C)CC1 [Example 64-3, (S)-5-Ethyl-1-(6-(3-(3-ethyl-4-(1-(isopropoxycarbonyl)piperidin-4-yl)phenoxy)-2,3-dihydro-1H-inden-4-yl)pyridin-2-yl)-1H-pyrazole-4-carboxylic acid]
≤ 0.5 nM	CCCOC(=O)N1CCC(c2ccc(O[C@H]3CCc4cccc(-c5cccc(-n6ncc(C(=O)O)c6CC)n5)c43)cc2CC)CC1 [Example 64-4, (S)-5-Ethyl-1-(6-(3-(3-ethyl-4-(1-(propoxycarbonyl)piperidin-4-yl)phenoxy)-2,3-dihydro-1H-inden-4-yl)pyridin-2-yl)-1H-pyrazole-4-carboxylic acid]
≤ 0.5 nM	C=CCOC(=O)N1CCC(c2ccc(O[C@H]3CCc4cccc(-c5cccc(-n6ncc(C(=O)O)c6CC)n5)c43)cc2CC)CC1 [Example 64-5, (S)-1-(6-(3-(4-(1-((Allyloxy)carbonyl)piperidin-4-yl)-3-ethylphenoxy)-2,3-dihydro-1H-inden-4-yl)pyridin-2-yl)-5-ethyl-1H-pyrazole-4-carboxylic acid]

Structure (SMILES)	EC50
CCc1cc(O[C@H]2CCc3cccc(-c4cccc(-n5ncc(C(=O)O)c5CC)n4)c32)ccc1C1CCN(C(=O)OCC(C)C)CC1 [Example 64-2, (S)-5-Ethyl-1-(6-(3-(3-ethyl-4-(1-(isobutoxycarbonyl)piperidin-4-yl)phenoxy)-2,3-dihydro-1H-inden-4-yl)pyridin-2-yl)-1H-pyrazole-4-carboxylic acid]	3 nM

target: soluble guanylate cyclase (human GUCYA3 and GUCYB3) overexpressed in CHO cells (Homo sapiens (Human), UniProt Q02153); assay: as above; assay type: cell-based; conditions: CHO GUCY clone 8E10, cGMP production, assay buffer with 1 mM IBMX and 20 uM ODQ, 1 h room temperature; minimum quantification limit 0.5 nM (listed 0.5 nM means ≤0.5 nM)
How it was run: as §1

Sequence of soluble guanylate cyclase (human GUCYA3 and GUCYB3) overexpressed in CHO cells (Homo sapiens (Human), UniProt Q02153) (Q02108 whole entry partner): as the sequence (Q02108 whole entry partner) above
Sequence of soluble guanylate cyclase (human GUCYA3 and GUCYB3) overexpressed in CHO cells (Homo sapiens (Human), UniProt Q02153) (Q02153 whole entry): as the sequence (Q02153 whole entry) above

EC50	Structure (SMILES)
≤ 0.5 nM	CCc1cc(CN2CC(C)c3cccc(-c4cccc(-n5ncc(C(=O)O)c5CC)n4)c32)ccc1C1CCN(C(=O)[C@H](C)O)CC1 (single isomer, unassigned) [Example 17b]
≤ 0.5 nM	CCc1cc(O[C@H]2CCc3cccc(-c4cccc(-n5ncc(C(=O)O)c5CC)n4)c32)ccc1C1CCN(C(=O)C(C)CCO)CC1 (single isomer, unassigned) [Example 32b]
